Experimental data reported in ChEMBL document CHEMBL1201862, “PubChem BioAssay data set” (2004).
Several values for one entry are separate records, joined by “and”; a condition that tells them apart may be missing. Identical values can stand only once.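 96-well plates; 48 h exposure; 5 concentrations. Endpoints by linear interpolation between flanking doses. Not reached: highest tested concentration assigned. GI50 is the concentration that inhibits growth by half.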 Activity calls are given as the source filed them. Cut-off read from the data, not from the text of the source: active = GI50 up to about 1.1 µM and inactive = higher.

Legend:
Assay in all cases: NCI-60 cell line screen, 48 h
SK-MEL-5 = test system: SK-MEL-5
MDA-MB-435 = test system: MDA-MB-435
SR = test system: SR
MDA-MB-231 = test system: MDA-MB-231
SF-268 = test system: SF-268
PC-3 = test system: PC-3
OVCAR-8 = test system: OVCAR-8
IGROV-1 = test system: IGROV-1
OVCAR-5 = test system: OVCAR-5
NCI/ADR-RES = test system: NCI/ADR-RES
SNB-19 = test system: SNB-19
SNB-75 = test system: SNB-75
NCI-H23 = test system: NCI-H23
U-251 = test system: U-251
SN12C = test system: SN12C
A498 = test system: A498
NCI-H226 = test system: NCI-H226
MOLT-4 = test system: MOLT-4
KM12 = test system: KM12

Measured: GI50

COC1C(OC(C)=O)CC(=O)OC(C)C/C=C/C=C\C(O)C(C)CC(CC=O)C1OC1OC(C)C(OC2CC(C)(O)C(OC(=O)CC(C)C)C(C)O2)C(N(C)C)C1O (stereo not given)
inactive: SK-MEL-5 46.9 µM and 39.3 µM | MDA-MB-435 51.1 µM | SR 24.6 µM and 18.5 µM | MDA-MB-231 > 100 µM | SF-268 56 µM | PC-3 79.6 µM | OVCAR-8 > 100 µM | IGROV-1 32.4 µM and 25.6 µM | OVCAR-5 > 100 µM | NCI/ADR-RES > 100 µM | SNB-19 > 100 µM and 77.6 µM | SNB-75 > 100 µM | NCI-H23 > 100 µM | U-251 > 100 µM | SN12C > 100 µM | A498 > 100 µM and 70.3 µM | NCI-H226 > 100 µM

COc1ccc(C(O)c2ccc3c(c2)OCO3)cc1 (stereo not given)
inactive: MOLT-4 > 100 µM | MDA-MB-435 > 100 µM | SR 25.6 µM | MDA-MB-231 > 100 µM | SF-268 > 100 µM | KM12 > 100 µM | PC-3 > 100 µM | OVCAR-8 > 100 µM | IGROV-1 > 100 µM | OVCAR-5 > 100 µM | NCI/ADR-RES 65.6 µM | SNB-19 > 100 µM | SNB-75 1.94 µM | NCI-H23 > 100 µM | U-251 > 100 µM | SN12C > 100 µM | A498 > 100 µM | NCI-H226 > 100 µM

CN(N=O)C(=O)Nc1c[nH]c(=O)[nH]c1=O
inactive: MOLT-4 > 100 µM | SK-MEL-5 > 100 µM | MDA-MB-435 > 100 µM | MDA-MB-231 > 100 µM | KM12 > 100 µM | PC-3 > 100 µM | OVCAR-8 > 100 µM | IGROV-1 > 100 µM | OVCAR-5 > 100 µM | NCI/ADR-RES > 100 µM | SNB-19 > 100 µM | SNB-75 > 100 µM | NCI-H23 > 100 µM | U-251 > 100 µM | SN12C > 100 µM | A498 > 100 µM | NCI-H226 > 100 µM

Nc1ncc(CN2CCCC2)c(-c2ccccc2O)n1
inactive: MOLT-4 > 750 µM | SK-MEL-5 > 750 µM | SR > 750 µM | SF-268 > 750 µM | KM12 > 750 µM | OVCAR-8 > 750 µM | IGROV-1 > 750 µM | OVCAR-5 > 750 µM | NCI/ADR-RES > 100 µM | SNB-19 > 750 µM | SNB-75 > 750 µM | NCI-H23 > 750 µM | U-251 > 750 µM | SN12C > 750 µM | A498 > 750 µM | NCI-H226 > 750 µM

CC(C)C12C=CC(C)(CC1)n1c(=O)c3cc4ccccc4cc3c(=O)n12 (stereo not given)
inactive: MOLT-4 30.8 µM | SK-MEL-5 32 µM | SR 33.5 µM | SF-268 67.3 µM | KM12 50.8 µM | OVCAR-8 75.9 µM | IGROV-1 47.8 µM | OVCAR-5 40.7 µM | SNB-19 40.5 µM | SNB-75 33.7 µM | NCI-H23 52 µM | U-251 76 µM | SN12C 34.7 µM | A498 22.5 µM | NCI-H226 40.6 µM

O=C(Nc1nnn[nH]1)c1nc(O)cc(-c2ccccc2)n1
inactive: MOLT-4 > 100 µM | SK-MEL-5 > 100 µM | SR > 100 µM | SF-268 > 100 µM | KM12 > 100 µM | OVCAR-8 > 100 µM | IGROV-1 > 100 µM | OVCAR-5 > 100 µM | SNB-19 > 100 µM | SNB-75 > 100 µM | NCI-H23 > 100 µM | U-251 > 100 µM | SN12C > 100 µM | A498 > 100 µM | NCI-H226 > 100 µM

CC(=O)OCc1cc(OC(C)=O)c2cc3c(OC(C)=O)cccc3c(OC(C)=O)c2c1
inactive: MOLT-4 15.2 µM | SK-MEL-5 11.2 µM | MDA-MB-435 17.7 µM | SR 19.5 µM | MDA-MB-231 17.1 µM | SF-268 21.2 µM | PC-3 16.5 µM | OVCAR-8 13.3 µM | IGROV-1 14.5 µM | OVCAR-5 18.8 µM | NCI/ADR-RES 17.2 µM | SNB-19 18.3 µM | SNB-75 22.3 µM | NCI-H23 17.1 µM | U-251 15.6 µM | SN12C 12.2 µM | A498 11.2 µM | NCI-H226 23.1 µM

S=c1sc2c(Cl)nc(Cl)nc2n1-c1ccccc1
inactive: MOLT-4 32.4 µM | SK-MEL-5 64.4 µM | SR 22.3 µM | SF-268 11.1 µM | KM12 > 100 µM | OVCAR-8 36.6 µM | IGROV-1 18.2 µM | OVCAR-5 > 100 µM | SNB-19 > 100 µM | SNB-75 82.6 µM | NCI-H23 15.7 µM | U-251 31 µM | SN12C 46.2 µM | A498 > 100 µM | NCI-H226 61.2 µM

N#Cc1c(-c2ccccc2)c(/C=N/c2ccc(Cl)cc2)c(=O)n2c1[nH]c1ccccc12
inactive: SK-MEL-5 > 100 µM | MDA-MB-435 > 100 µM | MDA-MB-231 > 100 µM | SF-268 > 100 µM | KM12 54.1 µM | PC-3 > 100 µM | OVCAR-8 > 100 µM | IGROV-1 > 100 µM | OVCAR-5 > 100 µM | NCI/ADR-RES > 100 µM | SNB-19 > 100 µM | SNB-75 > 100 µM | NCI-H23 > 100 µM | U-251 > 100 µM | SN12C 97.7 µM | A498 > 100 µM | NCI-H226 > 100 µM

CCCCOC(=O)NC(Nc1ccc(S(=O)(=O)Nc2ccc(OC)nn2)cc1)(C(F)(F)F)C(F)(F)F
inactive: MOLT-4 > 100 µM | SK-MEL-5 > 100 µM | MDA-MB-435 > 100 µM | SR > 100 µM | MDA-MB-231 > 100 µM | SF-268 > 100 µM | KM12 > 100 µM | PC-3 > 100 µM | OVCAR-8 > 100 µM | IGROV-1 > 100 µM | OVCAR-5 > 100 µM | NCI/ADR-RES > 100 µM | SNB-19 > 100 µM | NCI-H23 > 100 µM | U-251 > 100 µM | SN12C > 100 µM | A498 > 100 µM | NCI-H226 > 100 µM

CC(=O)NNc1nc(C)c(C(=O)NNC(=O)C(=O)Nc2ccc(C)cc2[N+](=O)[O-])s1
inactive: MOLT-4 98.4 µM | SK-MEL-5 > 100 µM | SR 65.2 µM | SF-268 > 100 µM | KM12 > 100 µM | OVCAR-8 > 100 µM | IGROV-1 > 100 µM | OVCAR-5 > 100 µM | SNB-19 > 100 µM | SNB-75 > 100 µM | NCI-H23 > 100 µM | U-251 > 100 µM | SN12C > 100 µM | A498 > 100 µM | NCI-H226 > 100 µM

NNC(=O)c1nnn(CCc2ccccc2)c1C(=O)NN
inactive: MOLT-4 > 100 µM | SK-MEL-5 > 100 µM | MDA-MB-435 > 100 µM | SR > 100 µM | MDA-MB-231 > 100 µM | KM12 > 100 µM | PC-3 > 100 µM | OVCAR-8 > 100 µM | OVCAR-5 > 100 µM | NCI/ADR-RES > 100 µM | SNB-19 > 100 µM | NCI-H23 > 100 µM | U-251 > 100 µM | SN12C > 100 µM
